± gives the expanded uncertainty stated by the source.
Key:
[1] = 298.15 K; 101.33 kPa; Liquid; Vibrating tube method
[2] = excess molar enthalpy (molar enthalpy of mixing); xn = mol fraction of the nth substance listed; settings: 298.15 K, 101 kPa, Liquid, Flow calorimetry

CCCCN [1-butanamine]
Settings | mass density [kg/m3]
[1] | 732.18 ± 0.24

CCCCN [1-butanamine] + CC(=O)N(C)C
[2]
Settings | excess molar enthalpy [kcal/mol]
x2 = 0.0498 | 0.0115 ± 0.00167
x2 = 0.0992 | 0.0213 ± 0.00191
x2 = 0.1518 | 0.0294 ± 0.00215
x2 = 0.1985 | 0.0363 ± 0.00239
x2 = 0.2512 | 0.0394 ± 0.00239
x2 = 0.3004 | 0.0452 ± 0.00287
x2 = 0.3493 | 0.0483 ± 0.00287
x2 = 0.4015 | 0.0495 ± 0.00311
x2 = 0.4508 | 0.05 ± 0.00311
x2 = 0.5005 | 0.0497 ± 0.00311
x2 = 0.5509 | 0.048 ± 0.00287
x2 = 0.6005 | 0.0466 ± 0.00287
x2 = 0.7008 | 0.0382 ± 0.00239
x2 = 0.7995 | 0.0287 ± 0.00191
x2 = 0.8502 | 0.0225 ± 0.00167
x2 = 0.9002 | 0.0153 ± 0.00143
x2 = 0.9594 | 0.00645 ± 0.0012

CCCCN [1-butanamine] + CN(C)C=O
[2]
Settings | excess molar enthalpy [kcal/mol]
x2 = 0.051 | 0.0213 ± 0.00335
x2 = 0.1009 | 0.0397 ± 0.00359
x2 = 0.1496 | 0.054 ± 0.00406
x2 = 0.1703 | 0.059 ± 0.00406
x2 = 0.2005 | 0.0667 ± 0.0043
x2 = 0.2498 | 0.0765 ± 0.00478
x2 = 0.3007 | 0.0841 ± 0.00526
x2 = 0.3496 | 0.0891 ± 0.0055
x2 = 0.4008 | 0.0935 ± 0.00574
x2 = 0.4508 | 0.0939 ± 0.00574
x2 = 0.5008 | 0.0918 ± 0.0055
x2 = 0.5463 | 0.0894 ± 0.0055
x2 = 0.6008 | 0.0848 ± 0.00526
x2 = 0.6463 | 0.0779 ± 0.00478
x2 = 0.7011 | 0.0691 ± 0.00454
x2 = 0.7559 | 0.0586 ± 0.00382
x2 = 0.8005 | 0.0497 ± 0.00359
x2 = 0.8495 | 0.0378 ± 0.00311
x2 = 0.9003 | 0.0253 ± 0.00239
x2 = 0.9519 | 0.0131 ± 0.00215

CCCCCCN [1-hexanamine]
Settings | mass density [kg/m3]
[1] | 760.16 ± 0.23

CCCCCCN [1-hexanamine] + CC(=O)N(C)C
[2]
Settings | excess molar enthalpy [kcal/mol]
x2 = 0.0509 | 0.017 ± 0.00287
x2 = 0.1005 | 0.0337 ± 0.00311
x2 = 0.1507 | 0.0468 ± 0.00359
x2 = 0.1994 | 0.0583 ± 0.00406
x2 = 0.2488 | 0.0705 ± 0.00454
x2 = 0.3018 | 0.0808 ± 0.00502
x2 = 0.3484 | 0.0882 ± 0.0055
x2 = 0.398 | 0.0961 ± 0.00598
x2 = 0.4502 | 0.1 ± 0.00598
x2 = 0.5006 | 0.101 ± 0.00621
x2 = 0.5493 | 0.101 ± 0.00621
x2 = 0.6002 | 0.0994 ± 0.00598
x2 = 0.6492 | 0.0958 ± 0.00598
x2 = 0.7001 | 0.0896 ± 0.0055
x2 = 0.7491 | 0.0815 ± 0.00526
x2 = 0.7996 | 0.0707 ± 0.00478
x2 = 0.8513 | 0.0569 ± 0.0043
x2 = 0.9008 | 0.0409 ± 0.00382
x2 = 0.9503 | 0.0217 ± 0.00335

CCCCCCN [1-hexanamine] + CN(C)C=O
[2]
Settings | excess molar enthalpy [kcal/mol]
x2 = 0.0514 | 0.0282 ± 0.0043
x2 = 0.1007 | 0.0523 ± 0.00502
x2 = 0.1516 | 0.076 ± 0.00574
x2 = 0.2009 | 0.0942 ± 0.00621
x2 = 0.2522 | 0.11 ± 0.00717
x2 = 0.3006 | 0.127 ± 0.00813
x2 = 0.3519 | 0.14 ± 0.0086
x2 = 0.4007 | 0.148 ± 0.00908
x2 = 0.4518 | 0.155 ± 0.00932
x2 = 0.5003 | 0.158 ± 0.00956
x2 = 0.5505 | 0.158 ± 0.00956
x2 = 0.5982 | 0.155 ± 0.00932
x2 = 0.6507 | 0.147 ± 0.00908
x2 = 0.7002 | 0.136 ± 0.00837
x2 = 0.7503 | 0.122 ± 0.00789
x2 = 0.8005 | 0.105 ± 0.00693
x2 = 0.8506 | 0.0846 ± 0.00645
x2 = 0.8995 | 0.0588 ± 0.0055
x2 = 0.9502 | 0.0308 ± 0.00478

CC(=O)N(C)C [N,N-dimethylethanamide]
Settings | mass density [kg/m3]
[1] | 936.14 ± 0.21

CCCCNCCCC [dibutylamine]
Settings | mass density [kg/m3]
[1] | 755.7 ± 0.24

CCCCNCCCC [dibutylamine] + CC(=O)N(C)C
[2]
Settings | excess molar enthalpy [kcal/mol]
x2 = 0.0499 | 0.0359 ± 0.0055
x2 = 0.0976 | 0.066 ± 0.00621
x2 = 0.151 | 0.0968 ± 0.00741
x2 = 0.1969 | 0.12 ± 0.00813
x2 = 0.2472 | 0.141 ± 0.00908
x2 = 0.3002 | 0.161 ± 0.01
x2 = 0.3526 | 0.175 ± 0.0108
x2 = 0.3983 | 0.185 ± 0.0112
x2 = 0.4472 | 0.193 ± 0.0117
x2 = 0.5007 | 0.199 ± 0.012
x2 = 0.5507 | 0.199 ± 0.012
x2 = 0.6007 | 0.197 ± 0.012
x2 = 0.6477 | 0.192 ± 0.0117
x2 = 0.6968 | 0.181 ± 0.0112
x2 = 0.7481 | 0.167 ± 0.0105
x2 = 0.8004 | 0.148 ± 0.00956
x2 = 0.8512 | 0.121 ± 0.0086
x2 = 0.9019 | 0.0887 ± 0.00789
x2 = 0.9507 | 0.0485 ± 0.00717

CCCCNCCCC [dibutylamine] + CN(C)C=O
[2]
Settings | excess molar enthalpy [kcal/mol]
x2 = 0.0491 | 0.0449 ± 0.00765
x2 = 0.1014 | 0.0923 ± 0.00884
x2 = 0.1488 | 0.13 ± 0.0098
x2 = 0.2006 | 0.163 ± 0.0108
x2 = 0.2482 | 0.187 ± 0.012
x2 = 0.3006 | 0.21 ± 0.0131
x2 = 0.351 | 0.228 ± 0.0141
x2 = 0.4021 | 0.247 ± 0.0151
x2 = 0.4497 | 0.259 ± 0.0158
x2 = 0.4982 | 0.266 ± 0.016
x2 = 0.5505 | 0.267 ± 0.0163
x2 = 0.599 | 0.262 ± 0.016
x2 = 0.65 | 0.253 ± 0.0155
x2 = 0.6997 | 0.239 ± 0.0148
x2 = 0.7506 | 0.22 ± 0.0139
x2 = 0.7994 | 0.195 ± 0.0127
x2 = 0.8503 | 0.16 ± 0.0115
x2 = 0.9 | 0.117 ± 0.0105
x2 = 0.9501 | 0.0645 ± 0.00908

CN(C)C=O [dimethylformamide]
Settings | mass density [kg/m3]
[1] | 943.78 ± 0.21

CCCNCCC [dipropylamine]
Settings | mass density [kg/m3]
[1] | 733.37 ± 0.24

CCCNCCC [dipropylamine] + CC(=O)N(C)C
[2]
Settings | excess molar enthalpy [kcal/mol]
x2 = 0.0597 | 0.0234 ± 0.00359
x2 = 0.0996 | 0.0397 ± 0.00382
x2 = 0.1496 | 0.0562 ± 0.0043
x2 = 0.2011 | 0.0717 ± 0.00502
x2 = 0.2497 | 0.0856 ± 0.0055
x2 = 0.3009 | 0.0954 ± 0.00598
x2 = 0.3462 | 0.104 ± 0.00645
x2 = 0.4062 | 0.114 ± 0.00693
x2 = 0.4491 | 0.118 ± 0.00717
x2 = 0.5035 | 0.123 ± 0.00741
x2 = 0.5497 | 0.124 ± 0.00741
x2 = 0.5972 | 0.122 ± 0.00741
x2 = 0.6495 | 0.118 ± 0.00717
x2 = 0.6975 | 0.113 ± 0.00693
x2 = 0.7478 | 0.104 ± 0.00645
x2 = 0.8009 | 0.092 ± 0.00598
x2 = 0.8504 | 0.076 ± 0.0055
x2 = 0.8989 | 0.0571 ± 0.00502
x2 = 0.9368 | 0.0373 ± 0.00478
x2 = 0.9507 | 0.0301 ± 0.00454

CCCNCCC [dipropylamine] + CN(C)C=O
[2]
Settings | excess molar enthalpy [kcal/mol]
x2 = 0.0358 | 0.021 ± 0.00478
x2 = 0.1002 | 0.0576 ± 0.0055
x2 = 0.1512 | 0.0839 ± 0.00645
x2 = 0.1984 | 0.107 ± 0.00741
x2 = 0.2504 | 0.126 ± 0.00813
x2 = 0.3016 | 0.142 ± 0.00908
x2 = 0.3483 | 0.157 ± 0.0098
x2 = 0.4005 | 0.166 ± 0.0103
x2 = 0.4495 | 0.176 ± 0.0108
x2 = 0.5005 | 0.179 ± 0.0108
x2 = 0.5505 | 0.18 ± 0.011
x2 = 0.6012 | 0.178 ± 0.0108
x2 = 0.6587 | 0.169 ± 0.0103
x2 = 0.6997 | 0.161 ± 0.01
x2 = 0.7518 | 0.147 ± 0.00932
x2 = 0.7983 | 0.13 ± 0.0086
x2 = 0.8485 | 0.105 ± 0.00765
x2 = 0.8991 | 0.076 ± 0.00693
x2 = 0.9504 | 0.0406 ± 0.00598
